Series [1] relates to isolated working mouse hearts. In words: Langendorff-Neely isolated working heart preparation. The procedure:
Cardiac function of wild-type and transgenic mice were measured at 5-6 months of age using the Langendorff-Neely isolated working heart preparation, at a constant preload of 10 mmHg and an afterload of 55 mmHg, as previously described (29-31, incorporated herein by reference). Mice were anesthetized as above and the thoracic cavity was opened by a transverse incision to access the heart. Retrograde perfusion through the aorta was initiated within 60 seconds after removal of the heart. After establishing left atrial perfusion, the heart was switched to working mode. The hearts were perfused with Krebs-Henseleit bicarbonate buffer aerated with 95% O2-5% CO2 at 37° C. (pH=7.4). The buffer contents were as follows (in mM): 118 NaCl, 4.7 KCl, 2.25 CaCl2, MgSO4, 1.2 KH2PO4, 0.32 EGTA, 25 NaHCO3, and 11 D-glucose (29). Functions of the isolated working hearts were measured on intrinsic beats at 37° C. with no artificial pacing applied.
Aortic flow and coronary effluent were collected once every two minutes over a 30-minute period. Heart rate and the maximum rate of pressure development (dP/dt) were measured using an MLT844 pressure transducer (Capto, Horten, Norway) attached to the aortic cannula. […]
Stroke volume (μL/g heart tissue) was calculated as the sum of aortic flow and coronary effluent, normalized to heart rate. Stroke work (mL-mmHg/g heart tissue) was calculated as stroke volume X average aortic pressure (diastolic pressure+one-third of pulse pressure) (mmHg). During the collection of aortic flow, time to peak pressure (TTP) and the relaxation times (RT) at 10, 50 and 80% total relaxation (RT10, RT50 and RT80, respectively) were measured from the pressure traces. Systolic and diastolic pressure time integrals (STI, correlating with myocardial energy expenditure (31-34), and DTI, correlating with diastolic function and coronary perfusion (35-42), respectively) were calculated by integrating the systolic and diastolic portions of the pressure waves. […]

The test system of series [2] is actomyosin ATPase of mouse cardiac myofibrils. Briefly: Actomyosin MgATPase assay of isolated cardiac myofibrils (Ca2+ sensitivity). Type of series: biochemical. How it is done:
Mice were anesthetized with sodium pentobarbital (50 mg/kg body weight, i.p.). Hearts removed from transgenic or control mice were perfused in a retrograde manner, either with normal saline or with saline containing 20 nM isoproterenol. Cardiac myofibrils were prepared according to the method described by Solaro et al. (23, incorporated herein by reference) with modifications. These include the use of NaF (50 mM), EGTA (2.5 mM), and KH2PO4 as phosphatase inhibitors and phenylmethylsulphonyl fluoride (0.2 mM) as a protease inhibitor (24). The ventricular muscle was pulverized in a food blender for 10 seconds in 50 ml buffer containing 0.5% (v/v) Triton X-100®, 60 mM KCl, 30 mM imidazole, pH 7.0, 2 mM MgCl2, and 1 mM DTT, incubated for 5 min and centrifuged at 2,500×g for 2 min. Pellets were washed three times in buffer containing 60 mM KCl, 30 mM imidazole, pH 7.0, 2 mM MgCl2, and 1 mM DTT.
Actomyosin MgATPase assays were performed to titrate the Ca^2+ sensitivity of the transgenic and wild-type mouse cardiac myofibrils under constant ionic strength, using the stability constants compiled by Fabiato (25), and were performed at pH 7.0 with 50 mM imidazole, 50 mM KCl, and 2 mM MgATP at 37° C. Inorganic phosphate release was measured as the amount of heteropolymolybdenum (26) using an automated microtiter plate reader (Bio-Rad Benchmark) for optical density at 660 nm, as described previously (27, incorporated herein by reference).

The test system of the next series is transgenic mouse hearts. Briefly: Observation of transgenic mice and hearts for hypertrophy and abnormality. Type of series: in vivo. The text has this: Transgenic mice over-expressing various levels of cTnI-ND in the heart are apparently normal in life activities.

As for `CC(C)NCC(O)c1ccc(O)c(O)c1` (stereo not drawn) [isoproterenol], the “−dP/dt produced by isoproterenol treatment in WT hearts” value in series [1] (10 nM isoproterenol, WT hearts) is on record as 2087±58 mmHg-sec^−1. In series [1] (10 nM isoproterenol, WT, INT-cTnI-ND and H-cTnI-ND hearts), the “effect of isoproterenol on velocity of contraction (+dP/dt)” value is given as “increased in all three groups”. In addition, the “effect of isoproterenol on relaxation velocity” value in series [1] (30 nM and 50 nM isoproterenol perfusions, all three groups of hearts) was “significant increases in relaxation velocity”. The “maximum actomyosin ATPase rate with isoproterenol treatment, WT myofibrils” value in series [2] (WT cardiac myofibrils, with isoproterenol treatment) came to 418±57 nmole Pi/mg protein/min. Besides, in series [2] (myofibrils from isoproterenol perfused WT hearts), the pCa50 was found to be 5.91±0.05.
On to “cTnI-ND: N-terminus truncated mouse cardiac troponin I that lacks amino acids 1-28, over-expressed in transgenic mouse hearts”, for which, in the series with transgenic mouse hearts (compared with wild type controls), the “hypertrophy (heart weight/body weight ratio, diameter of cardiac myocytes)” value is reported as “No evidence of hypertrophy”. Moreover, the “anatomical or histological abnormality of hearts” value with transgenic mouse hearts (transgenic mouse hearts) is on record as “no evidence of anatomical or histological abnormality”. The “maximum Ca^2+-activated actomyosin ATPase rate” value in series [2] (cTnI-ND cardiac myofibrils, base line) worked out at 417±48 nmole Pi/mg protein/min. Also, in series [2] (cTnI-ND cardiac myofibrils, with isoproterenol treatment), the “maximum actomyosin ATPase rate with isoproterenol treatment, cTnI-ND myofibrils” value came to 421±43 nmole Pi/mg protein/min.

Source of the values: US8334105B2, “Methods for treating cardiac disease by modifying an N-terminal domain of troponin I” (Northshore University Healthsystem, priority 2004, dated 2012).
